{
  "source": "patent US20190358264A1",
  "about": "“METHODS OF TREATING DISEASES ASSOCIATED WITH ILC2 CELLS” (Limm Therapeutics, SA, priority 2016, published 2019)",
  "tested_on": "Th2",
  "assay": "In vitro stimulation of Th2 cells with NmU23, type 2 cytokine gene expression",
  "type": "cell-based, mouse",
  "conditions": "NmU23 100 ng/mL in vitro (FIG. 9f)",
  "excerpt": "FIGS. 9a-9i: FIG. 9a, Nmur1 quantitative RT-PCR analysis in the lungs at day 6 post Nippostrongylus brasiliensis (NB)—infection in lung. Eosinophils (Eo); Mast cells (Mast); Macrophages (Mø); Neutrophils (Neu); naive T cells (T); Innate lymphoid cells type 2 (ILC2). FIG. 9b, NMUR1 expression in human adaptive (CD4 T cells) and innate type 2 lymphocytes ILC2 from blood. FIG. 9c, Type 2 cytokine gene expression in human ILC2 and Th2 after in vitro stimulation with the peptide NmU25. FIG. 9d, Nmur1 expression in lung ILC2 before and after infection (at day 6). FIG. 9e, Nmur1 expression in steady state in Common lymphoid progenitor (CLP); Common helper innate lymphoid progenitor (CHILP), Bone marrow ILC2 progenitor (ILC2P) and Eo, Mast, Mø, Neu, Dendritic cells (DC); naive T cells (T); T-helper 2 cells (Th2); memory T cells, B cells (B), Lamina Propria glial cells (G) and neurons (N). n=3-6. FIG. 9f, Type 2 cytokine gene expression in intestinal ILC2 and Th2 after in vitro stimulation with the peptide NmU23 (100 ng/mL). n=3-6. FIG. 9g, Confocal analysis of intestinal lamina propria. Green: neurons (Ret^GFP); Cyan: KLRG1; red: CD3. […]\nTotal RNA was extracted using RNeasy micro kit (Qiagen) according to the manufacturer's protocol. RNA concentration was determined using Nanodrop Spectrophotometer (Nanodrop Technologies). Quantitative real-time RT-PCR was performed as previously described^5,8. […]",
  "data": [
    {"substance": "recombinant mouse Neuromedin U 23 peptide (FKAEYQSPSVGQSKGYFLFRPRN; listed as Mus musculus) [NmU23, NMUR1 agonist neuropeptide, Phoenix pharmaceuticals]", "values": [
      {"measurement": "type 2 cytokine gene expression in adaptive T cell counterparts (Th2)", "value": "unperturbed"}
    ]}
  ]
}
